Target: T1, human URAT1 (Homo sapiens, UniProt Q96S37)
T1 construct: Full-length cDNA of human URAT1 (hURAT1)
T1 sequence (Q96S37 1-553): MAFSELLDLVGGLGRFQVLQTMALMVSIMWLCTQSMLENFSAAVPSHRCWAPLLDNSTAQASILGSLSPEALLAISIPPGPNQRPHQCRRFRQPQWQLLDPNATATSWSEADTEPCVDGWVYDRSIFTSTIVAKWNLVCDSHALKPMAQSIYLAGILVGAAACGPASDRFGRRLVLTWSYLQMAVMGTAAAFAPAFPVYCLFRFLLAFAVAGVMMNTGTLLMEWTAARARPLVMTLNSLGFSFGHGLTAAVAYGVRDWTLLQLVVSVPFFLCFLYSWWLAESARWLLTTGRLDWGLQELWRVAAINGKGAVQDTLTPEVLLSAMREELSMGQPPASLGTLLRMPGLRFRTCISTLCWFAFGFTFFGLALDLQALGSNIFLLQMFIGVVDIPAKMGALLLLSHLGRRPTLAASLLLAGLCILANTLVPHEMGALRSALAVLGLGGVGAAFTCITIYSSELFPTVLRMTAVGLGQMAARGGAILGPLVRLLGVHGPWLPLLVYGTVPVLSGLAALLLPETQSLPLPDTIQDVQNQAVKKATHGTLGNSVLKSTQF
Experiment: Test for inhibition of uric acid transport using human URAT1-expressing cells;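 also: three stars up to 0.2 µM two stars 0.2-2 µM one star 2-20 µM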
Type: cell-based
Conditions: HEK 293 cells expressing human URAT1, 14C-labeled uric acid 25 μM, uptake 37° C. for 5 min; for IC50: read-out: Inhibitory Activity (IC50 of uric acid transport inhibition)
In short: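 HEK293 cells stably transfected with full-length hURAT1, preincubated 10 min at 37 °C in HBSS with NaCl replaced by Na gluconate. Uptake of 25 μM ¹⁴C-uric acid with compound ran 5 min at 37 °C, then scintillation counting. IC50 derived from % of DMSO-control URAT1-specific uptake.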

| Inhibitory Activity (IC50 of uric acid transport inhibition) | IC50 [µM] | SMILES |
| --- | --- | --- |
| * * * |  | CCC(O)(CC)c1nc(-c2cncc(F)c2)n(Cc2cc(Cl)ccc2Cl)c1C(=O)O [Compound A215, 1-(2,5-dichlorobenzyl)-2-(5-fluoropyridin-3-yl)-4-(3-hydroxypentan-3-yl)-1H-imidazole-5-carboxylic acid] |
| * * * |  | CCC(O)(CC)c1nc(-c2cncc(Cl)c2)n(Cc2cc(Cl)ccc2Cl)c1C(=O)O [Compound A216, 2-(5-chloropyridin-3-yl)-1-(2,5-dichlorobenzyl)-4-(3-hydroxypentane-3-yl)-1H-imidazole-5-carboxylic acid] |
| * * * |  | CCC(O)(CC)c1nc(-c2cncc(C)c2)n(Cc2cc(Cl)ccc2Cl)c1C(=O)O [Compound A217, 1-(2,5-dichlorobenzyl)-4-(3-hydroxypentan-3-yl)-2-(5-methylpyridin-3-yl)-1H-imidazole-5-carboxylic acid] |
| * * * |  | CC(=O)c1nc(-c2cncc(Cl)c2)n(Cc2cc(Cl)ccc2Cl)c1C(=O)O [Compound A218, 4-acetyl-2-(5-chloropyridin-3-yl)-1-(2,5-dichlorobenzyl)-1H-imidazole-5-carboxylic acid] |
| * * * |  | Cc1cncc(-c2nc(Cl)c(C(=O)O)n2Cc2cc(Cl)ccc2Cl)c1 [Compound A219, 4-chloro-1-(2,5-dichlorobenzyl)-2-(5-methylpyridin-3-yl)-1H-imidazole-5-carboxylic acid] |
| * * * |  | O=C(O)c1c(Cl)nc(-c2cncc(Cl)c2)n1Cc1cc(Cl)ccc1Cl [Compound A220, 4-chloro-2-(5-chloropyridine-3-yl)-1-(2,5-dichlorobenzyl)-1H-imidazole-5-carboxylic acid] |
| * * * |  | O=C1OCc2nc(-c3cncc(Cl)c3)n(Cc3cc(Cl)ccc3Cl)c21 [Compound A221, 2-(5-chloropyridin-3-yl)-1-(2,5-dichlorobenzyl)-1H-furo[3,4-d]imidazol-6(4H)-one] |
|  | 2 to 20 | Cc1nc(-c2cncc(F)c2)n(C(C)c2cc(Cl)ccc2Cl)c1C(=O)O (stereo not drawn) [Compound A222] |
| * * |  | Cc1nc(-c2cncc(Cl)c2)n(C(C)c2cc(Cl)ccc2Cl)c1C(=O)O (stereo not drawn) [Compound A223, 2-(5-chloropyridin-3-yl)-1-(1-(2,5-dichlorophenyl)ethyl)-4-methyl-1H-imidazole-5-carboxylic acid] |
|  | 2 to 20 | Cc1cncc(-c2nc(C)c(C(=O)O)n2C(C)c2cc(Cl)ccc2Cl)c1 (stereo not drawn) [Compound A224] |
| * * * |  | Cc1nc(-c2cncc(F)c2)n(Cc2cc(Cl)sc2Cl)c1C(=O)O [Compound A225, 1-((2,5-dichlorothiophen-3-yl)methyl)-2-(5-fluoropyridin-3-yl)-4-methyl-1H-imidazole-5-carboxylic acid] |
| * * * |  | Cc1nc(-c2cncc(Cl)c2)n(Cc2cc(Cl)sc2Cl)c1C(=O)O [Compound A226] |
| * * * |  | Cc1cncc(-c2nc(C)c(C(=O)O)n2Cc2cc(Cl)sc2Cl)c1 [Compound A227, 1-((2,5-dichlorothiophen-3-yl)methyl)-4-methyl-2-(5-methylpyridin-3-yl)-1H-imidazole-5-carboxylic acid] |
| * * |  | Cc1nc(-c2cncc(F)c2)n(Cc2sc(Cl)cc2Cl)c1C(=O)O [Compound A228, 1-((2,4-dichlorothiophen-5-yl)methyl)-2-(5-fluoropyridin-3-yl)-4-methyl-1H-imidazole-5-carboxylic acid] |
| * * |  | Cc1nc(-c2cncc(Cl)c2)n(Cc2sc(Cl)cc2Cl)c1C(=O)O [Compound A229, 2-(5-chloropyridin-3-yl)-1-((2,4-dichlorothiophen-5-yl)methyl)-4-methyl-1H-imidazole-5-carboxylic acid] |

— patent US9637469B2, “Pyridine derivative” (Teijin Pharma Limited, priority 2012, dated 2017)
